Results published in patent US12581252B2, “Substituted pyrrolo[3,4-b]pyridines as PI3K-α inhibitors” (Relay Therapeutics, Inc., priority 2020, dated 2026).

Biological target: H1047R PIK3CA enzyme (Homo sapiens, UniProt P42336, H1047R)
Experiment: ADP-Glo Biochemical PIK3CA Kinase Assay

Sequence of H1047R PIK3CA enzyme (P42336 whole entry H1047R): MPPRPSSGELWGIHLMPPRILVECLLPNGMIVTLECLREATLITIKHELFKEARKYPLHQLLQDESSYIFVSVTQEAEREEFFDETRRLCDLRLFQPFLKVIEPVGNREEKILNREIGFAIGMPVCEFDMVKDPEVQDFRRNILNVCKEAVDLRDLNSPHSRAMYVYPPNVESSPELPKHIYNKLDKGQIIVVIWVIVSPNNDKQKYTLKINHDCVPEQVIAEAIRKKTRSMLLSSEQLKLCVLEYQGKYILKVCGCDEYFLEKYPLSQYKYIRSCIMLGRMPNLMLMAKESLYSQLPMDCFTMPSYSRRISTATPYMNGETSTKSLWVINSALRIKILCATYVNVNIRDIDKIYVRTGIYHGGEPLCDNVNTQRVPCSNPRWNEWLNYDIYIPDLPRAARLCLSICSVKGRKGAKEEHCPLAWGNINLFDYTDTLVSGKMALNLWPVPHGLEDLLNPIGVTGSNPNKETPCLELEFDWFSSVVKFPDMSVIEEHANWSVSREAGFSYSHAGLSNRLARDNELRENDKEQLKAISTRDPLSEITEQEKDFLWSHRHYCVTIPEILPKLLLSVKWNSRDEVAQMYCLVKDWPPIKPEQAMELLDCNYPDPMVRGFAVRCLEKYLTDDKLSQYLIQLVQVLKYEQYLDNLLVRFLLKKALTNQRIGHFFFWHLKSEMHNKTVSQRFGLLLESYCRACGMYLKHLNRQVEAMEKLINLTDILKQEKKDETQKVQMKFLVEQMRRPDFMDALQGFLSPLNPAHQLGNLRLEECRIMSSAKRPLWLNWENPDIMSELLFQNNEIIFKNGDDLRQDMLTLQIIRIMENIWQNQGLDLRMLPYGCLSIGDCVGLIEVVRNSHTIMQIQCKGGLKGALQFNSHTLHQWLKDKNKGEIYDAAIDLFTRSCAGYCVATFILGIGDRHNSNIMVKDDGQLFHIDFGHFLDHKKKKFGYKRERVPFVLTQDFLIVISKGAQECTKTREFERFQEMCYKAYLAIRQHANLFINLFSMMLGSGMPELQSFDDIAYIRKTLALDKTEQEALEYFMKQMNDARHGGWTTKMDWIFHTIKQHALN
Sequence of H1047R PIK3CA enzyme (P27986 whole entry partner): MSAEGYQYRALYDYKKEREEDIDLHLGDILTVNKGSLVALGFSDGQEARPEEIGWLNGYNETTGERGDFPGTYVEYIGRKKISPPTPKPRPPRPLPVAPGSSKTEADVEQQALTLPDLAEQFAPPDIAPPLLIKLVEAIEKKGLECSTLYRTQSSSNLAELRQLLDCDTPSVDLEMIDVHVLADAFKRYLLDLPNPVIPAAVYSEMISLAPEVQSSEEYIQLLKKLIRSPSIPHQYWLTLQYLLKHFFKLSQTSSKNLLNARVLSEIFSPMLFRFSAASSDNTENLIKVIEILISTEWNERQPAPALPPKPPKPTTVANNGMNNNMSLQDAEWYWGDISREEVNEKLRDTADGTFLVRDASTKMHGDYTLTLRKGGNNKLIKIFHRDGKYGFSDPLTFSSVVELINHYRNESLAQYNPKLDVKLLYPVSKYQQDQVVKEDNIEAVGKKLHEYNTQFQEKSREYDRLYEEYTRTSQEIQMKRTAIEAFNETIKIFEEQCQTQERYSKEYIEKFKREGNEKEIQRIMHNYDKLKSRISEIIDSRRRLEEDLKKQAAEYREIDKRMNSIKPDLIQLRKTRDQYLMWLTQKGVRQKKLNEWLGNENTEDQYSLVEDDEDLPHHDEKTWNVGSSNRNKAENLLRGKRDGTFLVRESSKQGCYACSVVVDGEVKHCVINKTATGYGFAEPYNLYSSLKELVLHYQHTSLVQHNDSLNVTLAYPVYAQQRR

Row | IC50 | Structure (SMILES)
1 | ≤ 100 nM | Cn1nc(C(F)(F)F)cc1-c1cc(NC(=O)c2cc(F)cc(C(F)(F)F)c2)c2c(c1)C(=O)NC2c1cc(F)ccc1Cl (stereo not shown) [Compound I-1865]
2 | ≤ 100 nM | O=C(Nc1cc(OCc2cncnc2)cc2c1C(c1cc(F)ccc1Cl)NC2=O)c1cc(F)cc(C(F)(F)F)c1 (stereo not shown) [Compound I-1735]
3 | ≤ 100 nM | N#C[C@H]1C[C@H](c2cc(NC(=O)c3cc(F)cc(C(F)(F)F)c3)c3c(c2)C(=O)N[C@H]3c2cc(F)ccc2Cl)C1 (single isomer, unassigned) [Compound I-1326]
4 | ≤ 100 nM | N#CCn1cc(-c2cc(NC(=O)c3cc(F)cc(C(F)(F)F)c3)c3c(c2)C(=O)NC3c2cc(F)ccc2Cl)cn1 (stereo not shown) [Compound I-1420]
5 | 1000 to 10000 nM | CC(=O)Nc1cc(NC(=O)c2cc(F)cc(C(F)(F)F)c2)c2c(c1)C(=O)N[C@@H]2c1cc(F)ccc1Cl [Compound I-462]
6 | 1000 to 10000 nM | Cc1cnccc1-c1cc(NC(=O)c2cc(F)cc(C(F)(F)F)c2)c2c(c1)C(=O)N[C@@H]2c1cc(F)ccc1Cl (stereo in doubt) [Compound I-1011]
7 | ≤ 100 nM | CS(=O)(=O)N1CC(c2cc(NC(=O)c3cc(F)cc(C(F)(F)F)c3)c3c(c2)C(=O)NC3c2cc(F)ccc2Cl)C1 (stereo not shown) [Compound I-1228]
8 | ≤ 100 nM | CS(=O)(=O)c1ccccc1-c1cc(NC(=O)c2cc(F)cc(C(F)(F)F)c2)c2c(c1)C(=O)NC2c1cc(F)ccc1Cl (stereo not shown) [Compound I-1195]
9 | ≤ 100 nM | CC(=O)c1cc(NC(=O)c2cc(F)cc(C(F)(F)F)c2)c2c(c1)C(=O)NC2c1cc(F)ccc1C(F)F (stereo not shown) [Compound I-238]
10 | ≤ 100 nM | O=C(Nc1cc(Cl)nc2c1[C@@H](c1cc(F)ccc1Cl)NC2=O)c1cc(F)cc(C(F)(F)F)c1 [Compound I-617]
11 | 100 to 500 nM | O=C(Nc1cc(-c2cnn(S(=O)(=O)C(F)F)c2)cc2c1[C@@H](c1cc(F)ccc1Cl)NC2=O)c1cc(F)cc(C(F)(F)F)c1 [Compound I-2092]
12 | ≤ 100 nM | C[C@H](C#N)Oc1cc(NC(=O)c2cc(F)cc(C(F)(F)F)c2)c2c(c1)C(=O)N[C@H]2c1cc(F)ccc1Cl (single isomer, unassigned) [Compound I-2006]
13 | 100 to 500 nM | O=C(Nc1cc(Br)cc2c1[C@H](c1ccc(F)cc1Cl)NC2=O)c1cc(F)cc(C(F)(F)F)c1 [Compound I-755]
14 | ≤ 100 nM | CC(C)(O)Cc1cc(NC(=O)c2cc(F)cc(C(F)(F)F)c2)c2c(c1)C(=O)N[C@H]2c1cc(F)ccc1Cl [Compound I-621]
15 | ≤ 100 nM | [2H]c1nc2cnc(-c3cc(NC(=O)c4cc(F)cc(C(F)(F)F)c4)c4c(c3)C(=O)NC4c3cc(F)ccc3Cl)cn2n1 (stereo not shown) [Compound I-2012]
16 | ≤ 100 nM | O=C(Nc1cc(OC2COC2)cc2c1C(c1cc(F)ccc1Cl)NC2=O)c1cc(F)cc(C(F)(F)F)c1 (stereo not shown) [Compound I-1131]
17 | ≤ 100 nM | N#Cc1nn(C(F)F)cc1-c1cc(NC(=O)c2cc(F)cc(C(F)(F)F)c2)c2c(c1)C(=O)NC2c1cc(F)ccc1Cl (stereo not shown) [Compound I-1826]
18 | 1000 to 10000 nM | Cc1ccc(F)cc1[C@H]1NC(=O)c2cc(Br)cc(NC(=O)c3cc(F)cc(C(F)(F)F)c3)c21 [Compound I-757]
19 | ≤ 100 nM | O=C(Nc1cc(-c2cnn(C(F)F)c2)cc2c1C(c1cc(F)ccc1Cl)NC2=O)c1cc(F)cc(C(F)(F)F)c1 (stereo not shown) [Compound I-1657]

The next lines start with the compound.

Row | Structure (SMILES) | IC50
20 | O=C1NC(c2cc(F)ccc2Cl)c2c(NC(=O)[C@H]3C[C@@H](O)C[C@@H](C(F)(F)F)C3)cc(Br)cc21 (stereo partly shown) [Compound I-2027] | 10000 to 100000 nM
21 | O=C(Nc1cccc2c1C(C1CCCC(O)C1)NC2=O)c1cc(F)cc(C(F)(F)F)c1 (mixture of isomers) [Compound I-2227] | 10000 to 100000 nM
22 | O=C(Nc1cc(-c2cnn(-c3ncccn3)c2)cc2c1C(c1cc(F)ccc1Cl)NC2=O)c1cc(F)cc(C(F)(F)F)c1 (single isomer, unassigned) [Compound I-1554] | 1000 to 10000 nM
23 | O=C1N[C@@H](c2cc(F)ccc2Cl)c2c(NC(=O)N3C[C@@](O)(C(F)(F)F)c4cc(F)ccc43)ccc(-n3nccn3)c21 (single isomer, unassigned) [Compound I-2527] | 1000 to 10000 nM
24 | N#CCc1cc(NC(=O)N2C[C@H](O)c3cc(F)ccc32)c2c(c1)C(=O)N[C@H]2c1cc(F)ccc1Cl (single isomer, unassigned) [Compound I-2539] | 1000 to 10000 nM
25 | Cc1ccccc1C1NC(=O)c2cccc(NC(=O)C3CCc4ccccc43)c21 (stereo not shown) [Compound I-256] | 1000 to 10000 nM
26 | O=C1N[C@@H](c2cc(F)ccc2Cl)c2c(NC(=O)N3C[C@H](O)C[C@@H](C(F)(F)F)C3)cccc21 (single isomer, unassigned) [Compound I-2237] | 1000 to 10000 nM
27 | O=C(Nc1cccc2c1C(c1cc(F)ccc1Cl)NC2=O)c1cc(Cl)cc(C(F)(F)F)c1 (stereo not shown) [Compound I-725] | 500 to 1000 nM
28 | NCCc1cc(NC(=O)N2C[C@@](O)(C(F)(F)F)c3cc(F)ccc32)c2c(c1)C(=O)N[C@@H]2c1cc(F)ccc1Cl (single isomer, unassigned) [Compound I-2583] | 1000 to 10000 nM
29 | O=C1N[C@@H](c2cc(F)ccc2Cl)c2c(NC(=O)N3C[C@@](O)(C(F)(F)F)c4cc(F)ccc43)cc(-n3ccnn3)cc21 (single isomer, unassigned) [Compound I-2549] | 100 to 500 nM
30 | Cc1ccccc1C1NC(=O)c2cccc(NC(=O)c3cc(C(F)(F)F)ccn3)c21 (stereo not shown) [Compound I-337] | 10000 to 100000 nM
31 | N#Cc1cc(NC(=O)N2C[C@@](O)(C(F)(F)F)c3cc(F)ccc32)c2c(c1)C(=O)N[C@H]2c1cc(F)ccc1Cl (single isomer, unassigned) [Compound I-2559] | 1000 to 10000 nM
32 | Cc1ccc(C(=O)Nc2cc(Br)cc3c2C(c2cc(F)ccc2Cl)NC3=O)cc1 (stereo not shown) [Compound I-519] | 10000 to 100000 nM
33 | Cc1ccccc1[C@@H]1NC(=O)c2cccc(NC(=O)c3nsc4ccccc34)c21 [Compound I-72] | ≤ 100 nM
34 | CC(=O)N1CC[C@H](Oc2cc(NC(=O)c3cc(F)cc(C(F)(F)F)c3)c3c(c2)C(=O)NC3c2cc(F)ccc2Cl)C1 (single isomer, unassigned) [Compound I-1541] | 100 to 500 nM
35 | O=C1N[C@@H](c2cc(F)ccc2Cl)c2c(NC(=O)N3C[C@@H](O)c4cc(F)ccc43)cc(-n3ccccc3=O)cc21 (single isomer, unassigned) [Compound I-2351] | 100 to 500 nM
36 | CNc1cc(NC(=O)N2C[C@@](O)(C(F)(F)F)c3cc(F)ccc32)c2c(c1)C(=O)N[C@H]2c1cc(F)ccc1Cl (single isomer, unassigned) [Compound I-2642] | 100 to 500 nM
37 | O=C(Nc1cc(Br)cc2c1C(c1cc(F)ccc1Cl)NC2=O)c1cc(F)ccc1OC(F)(F)F (stereo not shown) [Compound I-788] | 1000 to 10000 nM
38 | C=CC(CC(=O)Nc1cccc2c1C(c1cc(F)ccc1Cl)NC2=O)C(C)C(F)(F)F (mixture of isomers) [Compound I-2195] | 1000 to 10000 nM
39 | O=C1NC(c2cc(F)ccc2Cl)c2c(NC(=O)N3CCNC(C(F)(F)F)C3)cccc21 (stereo not shown) [Compound I-2222] | 10000 to 100000 nM
40 | O=C(Nc1cc(N2CC3CNCC3C2=O)cc2c1C(c1cc(F)ccc1Cl)NC2=O)c1cc(F)cc(C(F)(F)F)c1 (stereo not shown) [Compound I-1291] | ≤ 100 nM

Row | Structure (SMILES) | IC50
41 | O=C(Nc1cccc2c1C(c1cc(F)c(F)cc1C(F)F)NC2=O)c1cc(F)cc(Cl)c1 (stereo not shown) [Compound I-331] | 100 to 500 nM
42 | O=C(Nc1cc(Br)cc2c1C(c1cc(F)ccc1Cl)NC2=O)c1nc2ccccc2[nH]1 (stereo not shown) [Compound I-1617] | 1000 to 10000 nM
43 | N#Cc1ccc2c(c1)N(C(=O)Nc1cccc3c1C(c1cc(F)ccc1Cl)NC3=O)CC2 (stereo not shown) [Compound I-2427] | 1000 to 10000 nM
44 | O=C1NC(c2ncccc2Cl)c2c(NC(=O)c3csc4ccccc34)cccc21 (stereo not shown) [Compound I-57] | 1000 to 10000 nM
45 | O=C(Nc1cc(-c2ccc3ncnn3c2)cc2c1C(c1cc(F)ccc1Cl)NC2=O)c1nc2ccccc2s1 (stereo not shown) [Compound I-1631] | 1000 to 10000 nM
46 | O=C(Nc1cccc2c1C(C1CCCNC1)NC2=O)c1cc(F)cc(C(F)(F)F)c1 (stereo not shown) [Compound I-1747] | 10000 to 100000 nM
47 | N#CCc1cc(NC(=O)N2C[C@](O)(C(F)F)c3cc(F)ccc32)c2c(c1)C(=O)N[C@@H]2c1cc(F)ccc1Cl (single isomer, unassigned) [Compound I-2598] | 1000 to 10000 nM
48 | O=C1NC(c2cc(F)ccc2Cl)c2c(NC(=O)N3CC4(CC4)c4cc(F)ccc43)cc(Br)cc21 (stereo not shown) [Compound I-1512] | 100 to 500 nM
49 | Cc1ccccc1C1NC(=O)c2cc([C@@H](C)N)cc(NC(=O)c3csc4ccccc34)c21 (mixture of isomers) [Compound I-90] | ≤ 100 nM
50 | Cc1ccccc1C1NC(=O)c2cccc(Nc3cc4ccccc4nn3)c21 (stereo not shown) [Compound I-27] | 10000 to 100000 nM
51 | O=C1N[C@@H](c2cc(F)ccc2Cl)c2c(NC(=O)N3C[C@H](O)c4cc(F)ccc43)cc(-c3ccc(=O)n(C(F)F)c3)cc21 (single isomer, unassigned) [Compound I-2450] | 1000 to 10000 nM
52 | CC(C)(O)CN(CC(C)(C)O)c1cc(NC(=O)c2cc(F)cc(C(F)(F)F)c2)c2c(c1)C(=O)NC2c1cc(F)ccc1Cl (stereo not shown) [Compound I-848] | 1000 to 10000 nM
53 | CC(=O)N1CCCCC1C1NC(=O)c2cccc(NC(=O)c3cc(F)cc(C(F)(F)F)c3)c21 (stereo not shown) [Compound I-1674] | 10000 to 100000 nM
54 | O=C1NC(c2cc(F)ccc2Cl)c2c(NC(=O)N3CCC4C(C3)C4C(F)(F)F)cc(Br)cc21 (stereo not shown) [Compound I-1756] | 1000 to 10000 nM
55 | O=C1NC(c2cc(F)ccc2Cl)c2c(NC(=O)N3CCc4cc(OC(F)(F)F)ccc43)cccc21 (stereo not shown) [Compound I-2481] | 1000 to 10000 nM
56 | N#CCn1nc(Nc2cc(-c3ccc4ncnn4c3)cc3c2C(c2cc(F)ccc2Cl)NC3=O)c2ccccc21 (stereo not shown) [Compound I-1808] | 1000 to 10000 nM
57 | N#Cc1cc(-c2ccc3ncnn3c2)cc2c1C(c1cc(F)ccc1Cl)NC2=O (stereo not shown) [Compound I-1801] | 1000 to 10000 nM
58 | Cc1ccccc1C1NC(=O)c2cccc(NC(=O)c3ccsn3)c21 (stereo not shown) [Compound I-451] | 10000 to 100000 nM
59 | O=C1NC(c2cc(F)ccc2Cl)c2c(NC(=O)N3CCC(C(F)(F)F)CC3)cc(Br)cc21 (stereo not shown) [Compound I-430] | 1000 to 10000 nM
60 | Cc1ccccc1C1NC(=O)c2c(N(C)C)ncc(NC(=O)c3cc(F)cc(C(F)(F)F)c3)c21 (stereo not shown) [Compound I-243] | 500 to 1000 nM
61 | O=C1N[C@H](c2cc(F)ccc2Cl)c2c(NC(=O)N3C[C@@](O)(C(F)(F)F)c4ccccc43)cc(Cl)cc21 (single isomer, unassigned) [Compound I-2506] | 1000 to 10000 nM
